# Molecular target: IRE-1α (Homo sapiens (Human), UniProt O75460)
# Experiment: Cellular EC50: endogenous XBP-1 splicing in myeloma cells (MM.1s, DTT stress, RT-PCR)
# Assay type: cell-based
# Settings: average cellular EC50, XBP-1 splicing in myeloma cells
# Method: Human myeloma MM.1s cells are incubated with a compound for 1.25 hours before stressing the cells with 2 mM dithiothreitol (DTT). After an additional 45 minutes (2 hours total) with compound and DTT, the cells are harvested with TRIZOL® (a mono-phasic solution of phenol and guanidine isothiocyanate), and total RNA is prepared as directed by the manufacturer (Invitrogen). Human XBP-1 is amplified by RT-PCR with the following primers, which flank the 26 base unconventional intron excised by IRE-1α:
# RT-PCR of unstressed (U) cells then generates the upper band. When cells are stressed (S) with the endoplasmic reticulum (ER) stressing agent DTT, IRE-1α is activated due to accumulating unfolded protein and the resulting RT-PCR product is 26 base pairs shorter.
# Compounds which pass specificity assays are assayed for cellular EC50 using endogenous XBP-1 splicing in myeloma cells. XBP-1 is regulated through the excision of a 26 nucleotide intron from the XBP-1 mRNA by the highly specific endoribonuclease activity of IRE-1α. […] This splicing event is used to measure IRE-1α activity on XBP-1 mRNA in cells and tissues.
# Briefly, compounds are incubated in the presence or absence of an ER stress agent (e.g., DTT), and the ratio of XBP-1u (unspliced) to XBP-1s (spliced) is quantified by RT-PCR. The ED50 is determined as the 50% XBP-1s to total XPB-1 levels.
# Chain of IRE-1α (O75460 19-977): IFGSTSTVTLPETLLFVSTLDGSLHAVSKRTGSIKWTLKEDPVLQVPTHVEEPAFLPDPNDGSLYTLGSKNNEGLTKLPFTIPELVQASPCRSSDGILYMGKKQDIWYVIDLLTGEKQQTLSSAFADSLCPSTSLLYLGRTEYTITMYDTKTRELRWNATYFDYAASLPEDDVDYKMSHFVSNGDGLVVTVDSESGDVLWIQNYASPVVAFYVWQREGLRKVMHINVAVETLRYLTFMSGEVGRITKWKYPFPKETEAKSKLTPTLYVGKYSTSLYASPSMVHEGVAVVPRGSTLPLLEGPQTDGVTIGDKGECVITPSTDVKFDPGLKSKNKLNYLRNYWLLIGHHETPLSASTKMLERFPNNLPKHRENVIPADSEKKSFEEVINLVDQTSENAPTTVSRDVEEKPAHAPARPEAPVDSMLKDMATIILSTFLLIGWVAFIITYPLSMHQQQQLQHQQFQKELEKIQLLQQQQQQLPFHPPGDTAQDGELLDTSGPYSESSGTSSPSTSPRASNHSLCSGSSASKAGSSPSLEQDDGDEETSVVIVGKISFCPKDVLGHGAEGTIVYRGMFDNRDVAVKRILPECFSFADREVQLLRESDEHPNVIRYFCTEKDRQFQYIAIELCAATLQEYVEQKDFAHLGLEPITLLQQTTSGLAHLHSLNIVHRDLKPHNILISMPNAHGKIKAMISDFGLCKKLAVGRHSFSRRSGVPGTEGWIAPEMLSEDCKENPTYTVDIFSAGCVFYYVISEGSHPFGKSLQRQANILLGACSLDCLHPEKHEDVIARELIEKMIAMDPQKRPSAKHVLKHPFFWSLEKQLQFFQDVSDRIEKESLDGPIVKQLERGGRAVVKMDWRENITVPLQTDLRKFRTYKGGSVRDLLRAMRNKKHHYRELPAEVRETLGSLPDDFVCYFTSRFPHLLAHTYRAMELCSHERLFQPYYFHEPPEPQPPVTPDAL
smiles,measurement,value
COc1cc2c(C)c(-c3ccc(N4CCOCC4)nc3)c(=O)oc2c(C=O)c1O [Example 114],EC50,< 10 µM
COc1cc2c(C)c(-c3ccc(N(C)C)nc3)c(=O)oc2c(C=O)c1O [Example 115],EC50,< 10 µM
[2H]C(=O)c1c(O)ccc2c(C)c(-c3ccc(C(=O)NCCN4CCOCC4)cc3)c(=O)oc12 [Example 116],EC50,< 10 µM
CCc1cc2c(C)c(-c3ccc(C(=O)NCCN4CCOCC4)cc3)c(=O)oc2c(C=O)c1O [Example 117],EC50,< 10 µM
CCc1cc2c(C)c(-c3ccc(C(=O)NCCOC)cc3)c(=O)oc2c(C=O)c1O [Example 118],EC50,< 10 µM
CCc1cc2c(C)c(-c3ccc(C(=O)N4CCOCC4)cc3)c(=O)oc2c(C=O)c1O [Example 119],EC50,> 10 µM
COc1cc(O)c(C=O)c2oc(=O)cc(C)c12 [Example 120],EC50,< 10 µM
COCCOc1cc(O)c(C=O)c2oc(=O)cc(C)c12 [Example 121],EC50,< 10 µM
COCc1cc(=O)oc2c(C=O)c(O)cc(OC)c12 [Example 122],EC50,< 10 µM
COCCc1c(C)c2c(O)cc(O)c(C=O)c2oc1=O [Example 123],EC50,< 10 µM
COCCc1c(C)c2c(OC)cc(O)c(C=O)c2oc1=O [Example 124],EC50,< 10 µM
COCCc1c(C)c2cc(OC)c(O)c(C=O)c2oc1=O [Example 125],EC50,< 10 µM
C=CCc1c(C)c2c(OC)cc(O)c(C=O)c2oc1=O [Example 126],EC50,< 10 µM
COCCOCCc1c(C)c2cc(OC)c(O)c(C=O)c2oc1=O [Example 127],EC50,< 10 µM
Cc1c(CC(=O)N2CCOCC2)c(=O)oc2c(C=O)c(O)ccc12 [Example 129],EC50,< 10 µM
Cc1c(CC(=O)N2CCN(C)CC2)c(=O)oc2c(C=O)c(O)ccc12 [Example 130],EC50,< 10 µM
CCOC(=O)Cc1c(C)c2cc(OC)c(O)c(C=O)c2oc1=O [Example 131],EC50,< 10 µM
COc1cc2c(CN3CCOCC3)c(C)c(=O)oc2c(C=O)c1O [Example 132],EC50,< 10 µM
COc1cc2c(CN(C)C)c(C)c(=O)oc2c(C=O)c1O [Example 133],EC50,< 10 µM
COc1cc(O)c(C=O)c2oc(=O)c(C)c(CN3CCOCC3)c12 [Example 134],EC50,< 10 µM
COc1cc(O)c(C=O)c2oc(=O)c(C)c(CN(C)C)c12 [Example 135],EC50,< 10 µM
COCc1cc(=O)oc2c(C=O)c(O)c(OC)cc12 [Example 136],EC50,< 10 µM
COCc1c(C)c(=O)oc2c(C=O)c(O)ccc12 [Example 137],EC50,< 10 µM
COCCNC(=O)CCc1c(COC)c2cc(OC)c(O)c(C=O)c2oc1=O [Example 138],EC50,> 10 µM
COCc1c(CCC(=O)N2CCOCC2)c(=O)oc2c(C=O)c(O)c(OC)cc12 [Example 139],EC50,< 10 µM
COCc1c(CCC(=O)NCCN2CCOCC2)c(=O)oc2c(C=O)c(O)c(OC)cc12 [Example 140],EC50,> 10 µM
COc1cc2c(C)c(-c3ccc(C(=O)N4CCN(C)CC4)s3)c(=O)oc2c(C=O)c1O [Example 141],EC50,< 10 µM
COc1cc2c(C)c(-c3ccc(C(=O)N4CCOCC4)s3)c(=O)oc2c(C=O)c1O [Example 142],EC50,< 10 µM
COc1cc2c(C)c(-c3ccc(C(=O)NCCN4CCOCC4)s3)c(=O)oc2c(C=O)c1O [Example 143],EC50,< 10 µM
CCOC(=O)CCc1c(C)c2cc(N(C)C(C)=O)c(O)c(C=O)c2oc1=O [Example 144],EC50,> 10 µM
COCCOCCc1c(C)c2c(OC)cc(O)c(C=O)c2oc1=O [Example 145],EC50,< 10 µM
COc1cc2c(C(C)C)cc(=O)oc2c(C=O)c1O [Example 146],EC50,< 10 µM
COc1cc2c(C)c(CCC(=O)NCCO)c(=O)oc2c(C=O)c1O [Example 147],EC50,> 10 µM
COc1cc2c(C)c(CC(=O)NCCO)c(=O)oc2c(C=O)c1O [Example 148],EC50,> 10 µM
COCOCCNC(=O)Cc1c(C)c2cc(OC)c(O)c(C=O)c2oc1=O [Example 149],EC50,< 10 µM
COCCNC(=O)c1ccc(-c2c(C)c3cc(Cl)c(O)c(C=O)c3oc2=O)cc1 [Example 150],EC50,> 10 µM
Cc1c(-c2ccc(C(=O)NCCN3CCOCC3)cc2)c(=O)oc2c(C=O)c(O)c(Cl)cc12 [Example 151],EC50,> 10 µM
COCCNC(=O)CCc1c(C)c2c(OCCOC)cc(O)c(C=O)c2oc1=O [Example 152],EC50,< 10 µM
COCCOc1cc(O)c(C=O)c2oc(=O)c(CCC(=O)N3CCOCC3)c(C)c12 [Example 153],EC50,< 10 µM
COCCOc1cc(O)c(C=O)c2oc(=O)c(CCC(=O)N3CCN(C)CC3)c(C)c12 [Example 154],EC50,< 10 µM
CCNC(=O)CCc1c(C)c2c(OCCOC)cc(O)c(C=O)c2oc1=O [Example 155],EC50,< 10 µM
